Results reported in article PMC6308302, “Identification of Pharmacokinetic Markers for Guanxin Danshen Drop Pills in Rats by Combination of Pharmacokinetics, Systems Pharmacology, and Pharmacodynamic Assays” (Frontiers in Pharmacology, 2018).
Entries after “also recorded” stand apart in the source; their conditions may differ. Marks after values point to notes of the source that are not given here.

Columns and labels:
[1] = Stability tests in rat plasma (QC samples, HPLC-MS); conditions: n=5
Description: Accuracy and precision were expressed by relative error (RE) and coefficient of variance (RSD), respectively.

[2] = Multiple component PK study in rat plasma after p.o. GDDP (HPLC-MS); conditions: for determination in rat plasma at the planned successive PK time points / detection in rat plasma: GDDP 0.8 g/kg p.o.; for determination in rat plasma at the planned successive PK time points: 5, 10, 15, 30, 45, 60, and 120 min, LOQ 1.0–1.4 ng/mL; for detection in rat plasma: at 5, 10, 15, 30, 45, or 60 min, LOD 0.5–0.7 ng/mL; for AUC(0-inf) / AUC(0-t) / MRT inf / MRT last / Tmax / Cmax / half-life: Sprague-Dawley, rat, plasma, po
Caco-2 cell monolayers = conditions: ref Lu et al., 2008, Liu et al., 2009, Hu et al., 2014, Bowles et al., 2017, cited from earlier work; for Papp(apical→basolateral) / Papp(basolateral→apical): Caco-2 cell monolayers, from literature; for apparent permeability in Caco-2 cell monolayers: previous results
[3] = Aqueous solubility test (vortexing in water); assay type: physicochemical; conditions: for solubility in water (in words): water at 25 °C
Method: Aqueous solubility (S) test of the 17 ingredients was performed by vortexing 10 mg of each ingredient in […] water in a test tube at ambient temperature and 1 atm. After vortexing for 5 min, if the solution is clear, the tested object will be considered as soluble in water. In silico assessment of the physicochemical properties governing permeation and intestinal absorption was carried out for the 17 ingredients studied. Theory aqueous solubility (S) was calculated with ALOGPS 2.1 online software via the Virtual Computational Chemistry Laboratory service (Chemoinformatics Group, Neuherberg, Germany) (VCCLAB^1). The octanol–water partition coefficient (cLogP), the total hydrogen bond count (donors and acceptors), and topological polar surface area (TPSA) were determined using the Molinspiration Property Calculator (Molinspiration Cheminformatics, Bratislava, Slovak Republic^2). Lipinski’s rule of 5 was used to predict the permeability of the compound ([Lipinski et al., 2001]).

[4] = system: isoprenaline-induced MI in mice; assay: In vivo anti-MI study: isoprenaline-induced myocardial injury (ECG, H&E histology); conditions: for Histopathology of heart tissue (H&E): 40 mg/kg p.o. for 7 days, isoprenaline-induced MI, 40 mg/kg; for ECG (lead II) findings on the fifth day of the trial: 40 mg/kg p.o., isoprenaline 5 mg/kg on days 4 and 5
[5] = 24h in auto-sampler vials, spiked 2 ng/mL
[6] = 24h in auto-sampler vials, spiked 400 ng/mL
[7] = 24h in auto-sampler vials, spiked 1600 ng/mL
[8] = Placing plasma for 6h at 4°C, spiked 2 ng/mL
[9] = Placing plasma for 6h at 4°C, spiked 400 ng/mL
[10] = Placing plasma for 6h at 4°C, spiked 1600 ng/mL
[11] = three freeze-thaw cycles, rat plasma, spiked 2 ng/mL
[12] = three freeze-thaw cycles, rat plasma, spiked 400 ng/mL
[13] = three freeze-thaw cycles, rat plasma, spiked 1600 ng/mL
[14] = 0.4 g/kg, Cmax, rat plasma, GDDP 0.4 g/kg p.o. (Low dose group), n=3
[15] = 0.4 g/kg, t1/2 β, rat plasma, GDDP 0.4 g/kg p.o. (Low dose group), n=3
[16] = 0.8 g/kg, Cmax (high / low plasma drug concentrations), rats, GDDP 0.4 and 0.8 g/kg p.o., classification
[17] = 0.8 g/kg, Cmax, rat plasma, GDDP 0.8 g/kg p.o. (High dose group), n=3
[18] = 0.8 g/kg, t1/2 β (fast / slow elimination type), rats, GDDP 0.4 and 0.8 g/kg p.o., classification
[19] = 0.8 g/kg, t1/2 β, rat plasma, GDDP 0.8 g/kg p.o. (High dose group), n=3
[20] = rat plasma, GDDP 0.4 g/kg p.o. (Low dose group), n=3
[21] = rat plasma, GDDP 0.8 g/kg p.o. (High dose group), n=3

## Cc1cccc2c3c(ccc12)C1=C(C(=O)C3=O)[C@@H](C)CO1 [DHTS I, dihydrotanshinone I]
[1]; [5]
  Stability: Measured: 2.21 ± 0.23 ng/mL
  Stability: RE: 10.31%
[1]; [6]
  Stability: Measured: 464.67 ± 43.51 ng/mL
  Stability: RE: 16.17%
[1]; [7]
  Stability: Measured: 1644.43 ± 109.72 ng/mL
  Stability: RE: 2.78%
[1]; [8]
  Stability: Measured: 2.23 ± 0.06 ng/mL
  Stability: RE: 11.41%
[1]; [9]
  Stability: Measured: 456.85 ± 38.51 ng/mL
  Stability: RE: 14.21%
[1]; [10]
  Stability: Measured: 1735.14 ± 230.11 ng/mL
  Stability: RE: 8.45%
[1]; [11]
  Stability: Measured: 2.015 ± 0.18 ng/mL
  Stability: RE: 2.73%
[1]; [12]
  Stability: Measured: 437.97 ± 37.90 ng/mL
  Stability: RE: 9.49%
[1]; [13]
  Stability: RE: 0.88%
[2]
  determination in rat plasma at the planned successive PK time points: could be determined
  detection in rat plasma: could be detected
[2]; 0.4 g/kg
  AUC(0-inf): 0.0142 ± 0.0172 µg·h/mL
  AUC(0-t): 0.0121 ± 0.0144 µg·h/mL
  MRT inf: 416 ± 443 min
  MRT last: 310 ± 313 min
  Tmax: 82.8 ± 52.8 min
[2]; [14]
  Cmax: 1.9 ± 1.57 ng/mL
[2]; [15]
  half-life: 161 ± 143 min
[2]; 0.8 g/kg
  AUC(0-inf): 0.0161 ± 0.00284 µg·h/mL
  AUC(0-t): 0.0147 ± 0.00251 µg·h/mL
  MRT inf: 436 ± 208 min
  MRT last: 303 ± 122 min
  Tmax: 49.8 ± 8.4 min
[2]; [16]
  Cmax: < 10 ng/mL
[2]; [17]
  Cmax: 3.1 ± 0.49 ng/mL
[2]; [18]
  half-life: > 156 min
[2]; [19]
  half-life: 334 ± 179 min
[2]; [20]
  Cltot: 6.05 ± 7.34 L/h/kg
[2]; [21]
  Cltot: 2.86 ± 0.46 L/h/kg
Caco-2 cell monolayers
  Papp(apical→basolateral): 1.49^d ×10^-6 cm/s
  Papp(basolateral→apical): 8.28^d ×10^-6 cm/s
  apparent permeability in Caco-2 cell monolayers: ≥ 10^-6 cm/s
[3]
  solubility in water (in words): insoluble
[4]
  Histopathology of heart tissue (H&E): remarkably severe histological damage with extensive myocardial lysis and architecture wrecking; also recorded: extremely severe histological damage with extensive myocardial lysis and architecture wrecking
  ECG (lead II) findings on the fifth day of the trial: T waves reversed or decreased

## C[C@H]1COC2=C1C(=O)C(=O)c1c2ccc2c1CCCC2(C)C [CTS, cryptotanshinone]
[1]; [5]
  Stability: Measured: 1.79 ± 0.36 ng/mL
  Stability: RE: -10.32%
[1]; [6]
  Stability: Measured: 478.43 ± 27.22 ng/mL
  Stability: RE: 19.61%
[1]; [7]
  Stability: Measured: 1852.38 ± 164.86 ng/mL
  Stability: RE: 15.77%
[1]; [8]
  Stability: Measured: 1.79 ± 0.26 ng/mL
  Stability: RE: -10.47%
[1]; [9]
  Stability: Measured: 438.37 ± 50.69 ng/mL
  Stability: RE: 9.59%
[1]; [10]
  Stability: Measured: 1890.21 ± 223.22 ng/mL
  Stability: RE: 18.14%
[1]; [11]
  Stability: Measured: 1.62 ± 0.22 ng/mL
  Stability: RE: -19.00%
[1]; [12]
  Stability: Measured: 457.79 ± 26.04 ng/mL
  Stability: RE: 14.45%
[1]; [13]
  Stability: Measured: 1871.43 ± 321.89 ng/mL
  Stability: RE: 16.96%
[2]
  determination in rat plasma at the planned successive PK time points: could be determined
  detection in rat plasma: could be detected
[2]; 0.4 g/kg
  AUC(0-inf): 0.00172 ± 0.00124 µg·h/mL
  AUC(0-t): 0.00084 ± 3e-05 µg·h/mL
  MRT inf: 41.4 ± 39.6 min
  MRT last: 13.8 ± 1.8 min
  Tmax: 15 min
[2]; [14]
  Cmax: 2.33 ± 0.49 ng/mL
[2]; [15]
  half-life: 27 ± 27 min
[2]; 0.8 g/kg
  AUC(0-inf): 0.00324 ± 0.00109 µg·h/mL
  AUC(0-t): 0.00276 ± 0.00118 µg·h/mL
  MRT inf: 50.4 ± 18 min
  MRT last: 33.6 ± 13.2 min
  Tmax: 15 min
[2]; [16]
  Cmax: < 10 ng/mL
[2]; [17]
  Cmax: 4.09 ± 1.47 ng/mL
[2]; [18]
  half-life: < 120 min
[2]; [19]
  half-life: 34.2 ± 15.6 min
[2]; [20]
  Cltot: 209.12 ± 151.07 L/h/kg
[2]; [21]
  Cltot: 175.44 ± 49.57 L/h/kg
Caco-2 cell monolayers
  Papp(apical→basolateral): 1.59^d ×10^-6 cm/s
  Papp(basolateral→apical): 8.36^d ×10^-6 cm/s
  apparent permeability in Caco-2 cell monolayers: ≥ 10^-6 cm/s
[3]
  solubility in water (in words): insoluble
[4]
  Histopathology of heart tissue (H&E): remarkably severe histological damage with extensive myocardial lysis and architecture wrecking; also recorded: extremely severe histological damage with extensive myocardial lysis and architecture wrecking
  ECG (lead II) findings on the fifth day of the trial: T waves reversed or decreased

## CC(C)=CCC[C@](C)(O[C@@H]1O[C@H](CO)[C@@H](O)[C@H](O)[C@H]1O)[C@H]1CC[C@]2(C)[C@@H]1[C@H](O)C[C@@H]1[C@@]3(C)CC[C@H](O)C(C)(C)[C@@H]3[C@@H](O[C@@H]3O[C@H](CO)[C@@H](O)[C@H](O)[C@H]3O[C@@H]3OC[C@@H](O)[C@H](O)[C@H]3O)C[C@]12C [R1, notoginsenoside R1]
[1]; [5]
  Stability: Measured: 1.89 ± 0.51 ng/mL
  Stability: RE: -5.63%
[1]; [6]
  Stability: Measured: 395.76 ± 7.32 ng/mL
  Stability: RE: -1.06%
[1]; [7]
  Stability: Measured: 1619.10 ± 82.22 ng/mL
  Stability: RE: 1.19%
[1]; [8]
  Stability: Measured: 1.75 ± 0.34 ng/mL
  Stability: RE: -12.56%
[1]; [9]
  Stability: Measured: 387.55 ± 18.40 ng/mL
  Stability: RE: -3.11%
[1]; [10]
  Stability: Measured: 1698.54 ± 105.94 ng/mL
  Stability: RE: 6.16%
[1]; [11]
  Stability: Measured: 2.15 ± 0.21 ng/mL
  Stability: RE: 7.54%
[1]; [12]
  Stability: Measured: 395.28 ± 15.09 ng/mL
  Stability: RE: -1.18%
[1]; [13]
  Stability: Measured: 1784.04 ± 71.20 ng/mL
  Stability: RE: 11.50%
[2]
  determination in rat plasma at the planned successive PK time points: could be determined
  detection in rat plasma: could be detected
[2]; 0.4 g/kg
  AUC(0-inf): 0.171 ± 0.0926 µg·h/mL
  AUC(0-t): 0.146 ± 0.0589 µg·h/mL
  MRT inf: 78.6 ± 6.6 min
  MRT last: 66 ± 7.2 min
  Tmax: 30.6 ± 42 min
[2]; [14]
  Cmax: 167 ± 48 ng/mL
[2]; [15]
  half-life: 34.2 min
[2]; 0.8 g/kg
  AUC(0-inf): 0.168 ± 0.119 µg·h/mL
  AUC(0-t): 0.12 ± 0.117 µg·h/mL
  MRT inf: 115 ± 95.4 min
  MRT last: 53.4 ± 8.4 min
  Tmax: 45 min
[2]; [16]
  Cmax: > 20 ng/mL
[2]; [17]
  Cmax: 259 ± 342 ng/mL
[2]; [18]
  half-life: < 120 min
[2]; [19]
  half-life: 27 min
[2]; [20]
  Cltot: 3.34 ± 1.81 L/h/kg
[2]; [21]
  Cltot: 10.89 ± 11.27 L/h/kg
Caco-2 cell monolayers
  Papp(apical→basolateral): > 0.1^c ×10^-6 cm/s
  Papp(basolateral→apical): > 0.1^c ×10^-6 cm/s
  apparent permeability in Caco-2 cell monolayers: > 10^-7 cm/s
[3]; thermodynamic from solid, determined, water, 25 °C, 1 atm
  solubility at 5 min: > 10 mg/mL
[4]
  Histopathology of heart tissue (H&E): remarkably severe histological damage with extensive myocardial lysis and architecture wrecking; also recorded: extremely severe histological damage with extensive myocardial lysis and architecture wrecking
  ECG (lead II) findings on the fifth day of the trial: T waves reversed or decreased
